{"source": "patent US8404891B2", "about": "“Storage-stable formulation of paracetamol in aqueous solution” (Neogen N.V., priority 2009, dated 2013)", "origin": "cited, not measured here", "settings": "aqueous solution; K. T. Koshy et al., 1961"}
{"smiles": "CC(=O)Nc1ccc(O)cc1", "note": "[paracetamol, N-(4-hydroxy-phenyl)acetamide]", "values": [{"measurement": "pH at which rate of degradation is minimal", "result": "~6"}]}
